Data set [1] is described as follows: aqueous kinetic solubility.
The target of data set [2] is recombinant human GALK1 (Homo sapiens, UniProt P51570). The data set is described as follows: hGALK1 biochemical activity assay (Kinase-Glo Plus, ATP depletion). As to the method:
In vitro hGALK1 activity assays were performed as previously described. Liu et al., Bioorg. Med. Chem. Lett. 25(3): 721-727 (2015), which is incorporated by reference herein for the specific teachings thereof. The biochemical assay was performed by coupling the activity of recombinant human or mouse GALK1 to the Kinase-Glo Plus luminescent ATP detection kit, using ATP depletion as a measure of GALK1 turnover. Specifically, three μL/well of ATP substrate solution (35 μM ATP) in assay buffer (20 mM HEPES pH 8.0, 5 mM MgCl2, 60 mM NaCl, 1 mM DTT, 0.01% BSA final concentration) was dispensed into 1536-well assay plates (Greiner, white solid-bottom medium-binding plates). Aliquots of compound (23 nL solubilized in DMSO) were transferred to the assay plates using a Kalypsys 1536-well pintool such that 11 concentrations with 1/3 dilutions ranging from 57.4 μM-0.97 nM are tested. One μL/well of GALK-galactose solution (5 nM GALK1, 100 μM galactose) in assay buffer was then added, yielding a final reaction volume of 4 μL/well. Following a 1-hour room temperature incubation, 4 μL of Kinase-Glo Plus detection reagent was added to provide an ATP-dependent luminescent readout (final assay volume: 8 μL/well).
A general note: Kinase-Glo reads ATP consumption through a luciferase reaction.

Data set [3] is described as follows: PAMPA permeability. On the technique in general: PAMPA measures passive passage across an artificial lipid membrane.
Data set [4] is described as follows: rat microsomal stability (RLM).
For data set [5], the target named is recombinant mouse GALK1 (Mus musculus, UniProt Q9R0N0). The data set is described as follows: mGALK1 biochemical activity assay (Kinase-Glo Plus, ATP depletion). How it is done:
In vitro hGALK1 activity assays were performed as previously described. Liu et al., Bioorg. […] The biochemical assay was performed by coupling the activity of recombinant human or mouse GALK1 to the Kinase-Glo Plus luminescent ATP detection kit, using ATP depletion as a measure of GALK1 turnover. […] One μL/well of GALK-galactose solution (5 nM GALK1, 100 μM galactose) in assay buffer was then added, yielding a final reaction volume of 4 μL/well. Following a 1-hour room temperature incubation, 4 μL of Kinase-Glo Plus detection reagent was added to provide an ATP-dependent luminescent readout (final assay volume: 8 μL/well).

Where [6] appears, read: recombinant human GALK1, Kinase-Glo Plus ATP depletion, read-out: hGALK.
The mark [7] stands for this setting: Tables 2-15, 35 μM ATP, 100 μM galactose, 1 h, bracketed figure after some values (e.g. −1.2) is undefined and not reported, read-out: hGALK IC50.
The mark [8] stands for this setting: recombinant mouse GALK1, Kinase-Glo Plus ATP depletion, read-out: mGALK.
[9] abbreviates: recombinant human GALK1, Kinase-Glo Plus ATP depletion.
Where [10] appears, read: recombinant mouse GALK1, Kinase-Glo Plus ATP depletion.
Where [11] appears, read: recombinant mouse GALK1, Kinase-Glo Plus ATP depletion, bracketed figure in the cell, e.g. (−1.2), is not defined in the text shown, read-out: mGALK.
Setting [12] is: recombinant human GALK1, Kinase-Glo Plus ATP depletion, bracketed figure in the cell, e.g. (−1.2), is not defined in the text shown, read-out: hGALK.
Setting [13] is: microsomal stability half-life, minutes.

Like-named read-outs stand apart in the source and are kept apart here. Bounds are passed on as bounds.

Sequence of recombinant mouse GALK1 (Q9R0N0 whole entry): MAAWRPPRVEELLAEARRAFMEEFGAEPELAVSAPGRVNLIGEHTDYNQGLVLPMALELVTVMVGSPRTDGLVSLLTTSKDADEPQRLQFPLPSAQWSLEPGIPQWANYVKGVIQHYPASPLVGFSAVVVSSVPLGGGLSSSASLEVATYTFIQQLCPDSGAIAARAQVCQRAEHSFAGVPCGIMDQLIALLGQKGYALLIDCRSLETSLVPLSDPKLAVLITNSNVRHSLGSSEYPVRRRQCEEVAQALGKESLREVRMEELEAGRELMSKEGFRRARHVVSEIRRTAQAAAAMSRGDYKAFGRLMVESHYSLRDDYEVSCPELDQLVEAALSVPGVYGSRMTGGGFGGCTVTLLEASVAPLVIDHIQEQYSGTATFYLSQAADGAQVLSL
Sequence of recombinant human GALK1 (P51570 whole entry): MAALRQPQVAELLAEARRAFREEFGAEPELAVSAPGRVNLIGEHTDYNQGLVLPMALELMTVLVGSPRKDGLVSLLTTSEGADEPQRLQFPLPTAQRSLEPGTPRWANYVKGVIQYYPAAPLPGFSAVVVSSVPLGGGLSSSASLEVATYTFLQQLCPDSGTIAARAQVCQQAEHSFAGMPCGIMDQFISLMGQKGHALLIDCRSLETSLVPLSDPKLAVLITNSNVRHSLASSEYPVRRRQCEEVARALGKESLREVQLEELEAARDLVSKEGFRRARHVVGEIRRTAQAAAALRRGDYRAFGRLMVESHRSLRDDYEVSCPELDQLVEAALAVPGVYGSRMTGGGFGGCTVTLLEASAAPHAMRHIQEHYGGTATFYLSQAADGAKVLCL

Turning to `CC1=C(C(=O)Nc2cc(C(=O)O)ccn2)C(c2ccc(-c3ccccc3)cc2Cl)N=C(Nc2nc3ccc(F)cc3o2)N1` (centres unmarked) [Compound 65, 2-(4-(3-chloro-[1,1′-biphenyl]-4-yl)-2-((6-fluorobenzo[d]oxazol-2-yl)amino)-6-methyl-1,4-dihydropyrimidine-5-carboxamido)isonicotinic acid], the “Sol.” value in data set [1] was <1 µg/mL. Further, in data set [2] (setting [6]), the IC50 came out at 3.43 µM. Moreover, the “Perm. (1 × 10^−6 cm/sec)” value in data set [3] is given as <4.9 1 × 10^−6 cm/sec. In data set [4] (microsomal half-life), the “Metab. Stabil. (m)” value is >30 m.
Take `CC1=C(C(=O)Nc2cc(C(=O)O)ccn2)C(c2ccc(C(=O)O)cc2Cl)N=C(Nc2nc3ccc(F)cc3o2)N1` (centres unmarked) [Compound 72, 2-(4-(4-carboxy-2-chlorophenyl)-2-((6-fluorobenzo[d]oxazol-2-yl)amino)-6-methyl-1,4-dihydropyrimidine-5-carboxamido)isonicotinic acid]: the “Sol.” value in data set [1] is >83 µg/mL. For the same compound, the IC50 in data set [2] (setting [7]) and in data set [2] (setting [6]) was 2.17 µM in each case. For the same compound, the “Perm. (1 × 10^−6 cm/sec)” value in data set [3] was <1 1 × 10^−6 cm/sec. Besides, in data set [4] (microsomal half-life), the “Metab. Stabil. (m)” value is given as >30 m.
With `COC(=O)c1ccnc(NC(=O)C2=C(C)NC(Nc3nc4cccc(N)c4o3)=NC2c2ccc(C)cc2Cl)c1` (centres unmarked) [Compound 91], the “Sol.” value in data set [1] was <1 µg/mL. Moreover, in data set [5] (setting [8]), the IC50 turned out to be 7.08 µM. For the same compound, the “Perm. (1 × 10^−6 cm/sec)” value in data set [3] is on record as 177.1 1 × 10^−6 cm/sec. In data set [4] (microsomal half-life), the “Metab. Stabil. (m)” value amounted to 25.2784 m.
Regarding `CC1=C(C(=O)Nc2nnc(-c3cccnc3)s2)C(c2ccccc2Cl)N=C(Nc2nc3cc(N)ccc3o2)N1` (centres unmarked) [Compound 101, 2-((5-aminobenzo[d]oxazol-2-yl)amino)-4-(2-chlorophenyl)-6-methyl-N-(5-(pyridin-3-yl)-1,3,4-thiadiazol-2-yl)-1,4-dihydropyrimidine-5-carboxamide], the “Sol.” value in data set [1] stood at 1.8 µg/mL. For the same compound, the IC50 in data set [2] (setting [6]) came to 10.9 µM. Besides, the “Perm. (1 × 10^−6 cm/sec)” value in data set [3] was 4.4 1 × 10^−6 cm/sec. Also, the “Metab. Stabil. (m)” value in data set [4] (microsomal half-life) is listed as >30 m.
For the compound `CC1=C(C(=O)Nc2cc(C(=O)O)ccn2)C(c2ccc(C)cc2Cl)N=C(Nc2ncc(-c3ccccc3)o2)N1` (centres unmarked) [Compound 103, 2-(4-(2-chloro-4-methylphenyl)-6-methyl-2-((5-phenyloxazol-2-yl)amino)-1,4-dihydropyrimidine-5-carboxamido)isonicotinic acid], the “Sol.” value in data set [1] was determined as 42.2 µg/mL. For the same compound, the IC50 in data set [2] (setting [7]) and in data set [2] (setting [6]) was 24.3 µM throughout. The “Perm. (1 × 10^−6 cm/sec)” value in data set [3] is 4.14 1 × 10^−6 cm/sec. The “Metab. Stabil. (m)” value in data set [4] (microsomal half-life) was >30 m.
Regarding `CCn1cc(CNC(=O)C2=C(C)NC(Nc3nc4ccc(F)c(N)c4o3)=N[C@H]2c2ccc(C)cc2Cl)cn1` [Compound 135, (R)-2-((7-amino-6-fluorobenzo[d]oxazol-2-yl)amino)-4-(2-chloro-4-methylphenyl)-N-((1-ethyl-1H-pyrazol-4-yl)methyl)-6-methyl-1,4-dihydropyrimidine-5-carboxamide], the “Sol.” value in data set [1] (aqueous kinetic solubility) came out at 2.05 µg/mL. For the same compound, the results for the IC50 in data set [5] (setting [8]) and in data set [2] (setting [6]) were 0.97 µM and 0.07 µM, respectively. Also, the “Perm. (1 × 10^−6 cm/sec)” value in data set [3] (PAMPA) is 407.39 1 × 10^−6 cm/sec.
Consider `COC(=O)c1ccc(NC(=O)C2=C(C)NC(Nc3nc4ccccc4o3)=NC2c2ccccc2Cl)cc1` (centres unmarked) [Compound 138], for which the “Sol.” value in data set [1] (aqueous kinetic solubility) was <1 µg/mL. The IC50 worked out at 9.68 µM in data set [5] (Tables 2-15, 35 μM ATP, 100 μM galactose, 1 h, bracketed figure after some values is undefined and not reported, read-out: mGALK IC50); 9.68 µM in data set [5] (setting [8]). In addition, the “Perm. (1 × 10^−6 cm/sec)” value in data set [3] (PAMPA) was 25.4 1 × 10^−6 cm/sec. Further, the “Metab. Stabil. (m)” value in data set [4] (microsomal stability half-life) worked out at 17.7182 m.
Take `CCOC(=O)c1cccc(NC(=O)C2=C(C)NC(Nc3nc4ccccc4o3)=NC2c2ccccc2Cl)c1` (centres unmarked) [Compound 139, ethyl 3-(2-(benzo[d]oxazol-2-ylamino)-4-(2-chlorophenyl)-6-methyl-1,4-dihydropyrimidine-5-carboxamido)benzoate]: in data set [1] (aqueous kinetic solubility), the “Sol.” value is <1 µg/mL. In data set [2] (setting [6]), the IC50 came out at 3.85 µM. Also, the Papp (usually the rate of passage across a membrane or cell layer, normalised by area and donor concentration) in data set [3] (PAMPA, Perm. (1 × 10^−6 cm/sec)) was found to be 8.8 ×10⁻⁶ cm/s. In addition, in data set [4] (microsomal stability half-life), the “Metab. Stabil. (m)” value is reported as >30 m.
Consider `CC1=C(C(=O)Nc2ccc(CO)cc2)C(c2ccccc2Cl)N=C(Nc2nc3ccccc3o2)N1` (centres unmarked) [Compound 160, 2-(benzo[d]oxazol-2-ylamino)-4-(2-chlorophenyl)-N-(4-(hydroxymethyl)phenyl)-6-methyl-1,4-dihydropyrimidine-5-carboxamide], for which the “Sol.” value in data set [1] (aqueous kinetic solubility) is <1 µg/mL. In addition, the IC50 in data set [2] (setting [7]) turned out to be 17.2 µM. In addition, the “Perm. (1 × 10^−6 cm/sec)” value in data set [3] (PAMPA) is on record as 863.9 1 × 10^−6 cm/sec. Besides, the “Metab. Stabil. (m)” value in data set [4] (microsomal stability half-life) was >30 m.
Regarding `CCOC(=O)C1=C(C)NC(Nc2nc3ccccc3o2)=NC1c1ccccc1Cl` (centres unmarked) [Compound 239, ethyl 2-(benzo[d]oxazol-2-ylamino)-4-(2-chlorophenyl)-6-methyl-1,4-dihydropyrimidine-5-carboxylate], the “Sol.” value in data set [1] (aqueous kinetic solubility) is <1 µg/mL. Further, in data set [5] (setting [8]), the IC50 was determined as 13.7 µM. Also, in data set [2] (setting [9]), the “hGALK (μM)” value is “in- active”. For the same compound, in data set [4] (microsomal stability half-life), the “Metab. Stabil. (m)” value is given as 19.30 m.
As to `CCOC(=O)C1=C(C(C)C)NC(Nc2nc3ccccc3o2)=NC1c1ccccc1Cl` (centres unmarked) [Compound 240, ethyl 2-(benzo[d]oxazol-2-ylamino)-4-(2-chlorophenyl)-6-isopropyl-1,4-dihydropyrimidine-5-carboxylate], the “Sol.” value in data set [1] (aqueous kinetic solubility) was <1 µg/mL. For the same compound, the “mGALK (μM)” value in data set [5] (setting [10]) is reported as “in- active”. Besides, the “hGALK (μM)” value in data set [2] (setting [9]) was “in- active”. Also, the “Metab. Stabil. (m)” value in data set [4] (microsomal stability half-life) is 57.5 m.
For the compound `COC(=O)C1=C(C(F)(F)F)NC(Nc2nc3ccccc3o2)=NC1c1ccccc1Cl` (centres unmarked) [Compound 241, methyl 2-(benzo[d]oxazol-2-ylamino)-4-(2-chlorophenyl)-6-(trifluoromethyl)-1,4-dihydropyrimidine-5-carboxylate], in data set [1] (aqueous kinetic solubility), the “Sol.” value came out at 2.65 µg/mL. Moreover, in data set [5] (setting [10]), the “mGALK (μM)” value is “in- active”. Further, the “hGALK (μM)” value in data set [2] (setting [9]) is “in- active”. The “Metab. Stabil. (m)” value in data set [4] (microsomal stability half-life) was found to be 10.46 m.
Take `O=C1NCCC2=C1C(c1ccccc1Cl)N=C(Nc1nc3ccccc3o1)N2` (centres unmarked) [Compound 245, 2-(benzo[d]oxazol-2-ylamino)-4-(2-chlorophenyl)-4,6,7,8-tetrahydropyrido[4,3-d]pyrimidin-5(1H)-one]: in data set [1] (aqueous kinetic solubility), the “Sol.” value is <1 µg/mL. Further, the IC50 in data set [5] (setting [11]) was 21.7 µM; in data set [2] (setting [12]) it was 17.2 µM. In addition, in data set [4] (setting [13]), the “Metab. Stabil. (m)” value came to 27.12 m.
For the compound `COCC1=C(C(=O)Nc2nncs2)C(c2ccccc2Cl)N=C(Nc2nc3ccccc3o2)N1` (centres unmarked) [Compound 247], the “Sol.” value in data set [1] (aqueous kinetic solubility) is <1 µg/mL. In data set [5] (setting [11]), the IC50 worked out at 19.3 µM. In addition, the “Perm. (1 × 10^−6 cm/sec)” value in data set [3] (PAMPA) is 319.8 1 × 10^−6 cm/sec. The “Metab. Stabil. (m)” value in data set [4] (setting [13]) is reported as >30 m.
Turning to `CC1=C(C(=O)Nc2cc(C(=O)O)ccn2)C(c2ccccc2Cl)N=C(Nc2nc3ccccc3o2)N1CC(=O)O` (centres unmarked) [Compound 272], the “Sol.” value in data set [1] (aqueous kinetic solubility) was >83 µg/mL. In addition, the IC50 in data set [5] (setting [11]) amounted to 13.7 µM; in data set [2] (read-out: hGALK), 3.43 µM. In data set [4] (setting [13]), the “Metab. Stabil. (m)” value was >30 m.
With `CC1=C(C(=O)Nc2cc(C(=O)O)ccn2)C(c2ccccc2Cl)N=C(Nc2nc3ccccc3o2)N1C` (centres unmarked) [Compound 273, 2-(2-(benzo[d]oxazol-2-ylamino)-4-(2-chlorophenyl)-1,6-dimethyl-1,4-dihydropyrimidine-5-carboxamido)isonicotinic acid], the “Sol.” value in data set [1] (aqueous kinetic solubility) was >76 µg/mL. Further, the IC50 in data set [5] (setting [11]) is 34.3 µM; in data set [2] (setting [12]), 21.7 µM. Also, the “Metab. Stabil. (m)” value in data set [4] (setting [13]) is >30 m.
`CN(C)C(=O)C1CC(=O)C2=C(C1)NC(Nc1nc3ccccc3o1)=NC2c1ccccc1Cl` (centres unmarked) [Compound 277, 2-(benzo[d]oxazol-2-ylamino)-4-(2-chlorophenyl)-N,N-dimethyl-5-oxo-1,4,5,6,7,8-hexahydroquinazoline-7-carboxamide]: the “Sol.” value in data set [1] (aqueous kinetic solubility) is 10.84 µg/mL. For the same compound, the IC50 in data set [5] (setting [11]) stood at 4.32 µM. Besides, the “Perm. (1 × 10^−6 cm/sec)” value in data set [3] (PAMPA) is 219.68 1 × 10^−6 cm/sec. Besides, the “Metab. Stabil. (m)” value in data set [4] (setting [13]) is 20.79 m.

(Values after patent US20230158025A1 (UNIVERSITY OF UTAH RESEARCH FOUNDATION, priority 2020, published 2023).)
